Assays:
[1] = Tail Flick test (analgetic activity); format: in vivo; details: sc
[2] = Hot plate test (analgetic activity); format: in vivo; details: sc
opiate receptors = test: Competition for tritiated Naloxon specific binding in rat brain membrane preparates; details: tritiated Naloxon bond (1 nanomole) taken as 100 %
Experimental: The effect of the 10⁻⁷ and 10⁻⁵ M concentration of the compounds was examined to tritiated Naloxon bond in rat brain membrane preparates. […]
If the inhibition is high, i.e. the value of the specific bond of the labelled Naloxon is low, the compounds bind to the opiate receptors with high affinity.
A comparative data the tritiated Naloxon bond (concentration: 1 nanomole) was taken as 100 % (without excipients).
The membrane preparate was prepared according to the following article: G.W. Pasternak, H.A. Wilson, S.H. Snyder: Molecular Pharmacol. 11 340-51 (1975).
The specific radioactivity of the labelled Naloxon was 72.4 Ci/mmole [G. Töth, M. Kramer, F. Sirokmán, A. Borsodi, A. Rónai: J. Label. Comp. Radiopharm. 19 1021 (1976)].

[3] = compared with naloxone; cited from earlier work
[4] = Sensitivity to light of the isolated product
[5] = compound concentration 10⁻⁵ mol
[6] = compound concentration 10⁻⁷ mol

SMILES | Tail Flick ED₅₀ [1] [mg/kg.sc.] | Hot plate test ED₅₀ [2] [mg/kg.sc] | residual tritiated specific bonds of Naloxon (opiate receptors; [5]) [%] | residual tritiated specific bonds of Naloxon (opiate receptors; [6]) [%] | membrane affinity [3] | sensitivity to light [4]
COc1ccc2c3c1O[C@H]1C(=NNc4ccccc4)CC[C@@]4(O)[C@@H](C2)N(C)CC[C@]314 [Oxycodone phenylhydrazone, 14-OH-dihydrocodeinone phenylhydrazone] | 1.2 | 0.8 | – | – | – | –
CN1CC[C@]23c4c5ccc(O)c4O[C@H]2[C@@H](O)C=C[C@H]3[C@H]1C5 [Morphine, reference compound] | 5.0 | 3.6 | – | – | – | –
CN1CC[C@]23c4c5ccc(O)c4O[C@H]2C(=NNC(N)=O)CC[C@H]3[C@H]1C5 [Dihydromorphinone semicarbazone] | 0.13 | 0.085 | 4±6 | 69±13 | – | –
COc1ccc2c3c1O[C@H]1C(=NNC(N)=O)CC[C@@]4(O)[C@@H](C2)N(C)CC[C@]314 [Oxycodone semicarbazone, 14-OH-dihydrocodeinonesemicarbazone] | 0.45 | 0.58 | – | – | – | –
CN1CC[C@]23c4c5ccc(O)c4O[C@H]2C(=NNC(N)=O)CC[C@@]3(O)[C@H]1C5 [Oxymorphone semicarbazone, 14-OH-dihydromarphinone semicarbazone] | 0.9 | 0.9 | – | – | – | –
COc1ccc2c3c1O[C@H]1C(=NN)C=C[C@@]4(O)[C@@H](C2)N(C)CC[C@]314 [Oxycodeinone hydrazone, 14-OH-codeinone hydrazone] | – | – | 13±7 | 92±25 | – | –
COc1ccc2c3c1O[C@H]1C(=NNC(N)=S)CC[C@H]4[C@@H](C2)N(C)CC[C@]314 [Dihydrocodeinone thiosemicarbazone] | 0.6 | 1.7 | – | – | – | –
C=CCN1CCC23c4c5ccc(O)c4OC2C(=NNc2ccccc2)CCC3(O)C1C5 (stereo not shown) [naloxone phenylhydrazone] | – | – | – | – | much weaker membrane affinity than naloxone | –
COc1ccc2c3c1O[C@H]1C(=NNc4ccccc4)C=C[C@@]4(O)[C@@H](C2)N(C)CC[C@]314 [14-OH-codeinone phenylhydrazone] | – | – | – | – | – | sensitive to light
COc1ccc2c3c1O[C@H]1C(=NNC(N)=O)CC[C@H]4[C@@H](C2)N(C)CC[C@]314 [Dihydrocodeinone semicarbazone] | 0.35 | 0.38 | 9±7 | 43±4 | – | –
CN1CC[C@]23c4c5ccc(O)c4O[C@H]2C(=NNc2ccc([N+](=O)[O-])cc2[N+](=O)[O-])CC[C@@]3(O)[C@H]1C5 [Oxymorphone dinitrophenylhydrazone, 14-OH-dihydromorphinone-2,4-dinitrophenyl hydrazone] | 0.27 | 0.37 | 1±0.3 | 33±1 | – | –
CN1CC[C@]23c4c5ccc(O)c4O[C@H]2C(=NNC(N)=S)CC[C@@]3(O)[C@H]1C5 [Oxymorphone thiosemicarbazone, 14-OH dihydromorphine thiosemicarbazone] | – | – | 0 | 37±9 | – | –
CN1CC[C@]23c4c5ccc(O)c4O[C@H]2C(=NNc2ccc([N+](=O)[O-])cc2[N+](=O)[O-])CC[C@H]3[C@H]1C5 [Dihydromorphinone dinitrophenylhydrazone, Dihydromorphinone-2,4-dinitrophenyl hydrazone] | 0.18 | 0.27 | 0.5±0.7 | 17±2 | – | –
CN1CC[C@]23c4c5ccc(O)c4O[C@H]2C(=NNc2ccccc2)CC[C@H]3[C@H]1C5 [Dihydromorphinone phenylhydrazone] | – | – | 10±14 | 4±5 | – | –
COc1ccc2c3c1O[C@H]1C(=NNc4ccccc4)CC[C@H]4[C@@H](C2)N(C)CC[C@]314 [Dihydrocodeinone phenylhydrazone] | 2.3 | 2.4 | 5±1 | 75±9 | – | –
CN1CC[C@]23c4c5ccc(O)c4O[C@H]2C(=NNC(N)=S)CC[C@H]3[C@H]1C5 [Dihydromorphinone thiosemicarbazone] | – | – | 19±4 | 16±5 | – | –
